Experimental data published in EPA's CvTdb concentration-time database.

Assays:
Rat [1] = test: concentration in kidney after dosing; conditions: 864 h; dosed: Perfluorooctane Sulfonate; 2 mg/kg; oral; Female; Harlan Sprague Dawley
Rat [2] = test: concentration in kidney after dosing; conditions: 6 h; dosed: Perfluorooctane Sulfonate; 20 mg/kg; oral; Male; Harlan Sprague Dawley
Rat [3] = test: concentration in liver after dosing; conditions: 1848 h; dosed: Perfluorooctane Sulfonate; 20 mg/kg; oral; Male; Harlan Sprague Dawley
Rat [4] = test: concentration in liver after dosing; conditions: 864 h; dosed: Perfluorooctane Sulfonate; 20 mg/kg; oral; Female; F344
Rat [5] = test: concentration in plasma after dosing; conditions: dosed: Perfluorooctane Sulfonate, 2 mg/kg, iv, Female, F344
Rat [6] = test: concentration in liver after dosing; conditions: 3360 h; dosed: Perfluorooctane Sulfonate; 20 mg/kg; oral; Male; Harlan Sprague Dawley
Rat [7] = test: concentration in liver after dosing; conditions: 3360 h; dosed: Perfluorooctane Sulfonate; 20 mg/kg; oral; Male; Harlan Sprague Dawley; remark: listed apart in the source
Rat [8] = test: concentration in liver after dosing; conditions: 3360 h; dosed: Perfluorooctane Sulfonate; 20 mg/kg; oral; Male; Harlan Sprague Dawley; remark: listed apart in the source
Rat [9] = test: concentration in kidney after dosing; conditions: 24 h; dosed: Perfluorooctane Sulfonate; 20 mg/kg; oral; Male; Harlan Sprague Dawley
Rat [10] = test: concentration in liver after dosing; conditions: 6 h; dosed: Perfluorooctane Sulfonate; 20 mg/kg; oral; Male; Harlan Sprague Dawley
Rat [11] = test: concentration in kidney after dosing; conditions: 3360 h; dosed: Perfluorooctane Sulfonate; 20 mg/kg; oral; Male; Harlan Sprague Dawley
Rat [12] = test: concentration in brain after dosing; conditions: 1848 h; dosed: Perfluorooctane Sulfonate; 20 mg/kg; oral; Male; Harlan Sprague Dawley
Rat [13] = test: concentration in plasma after dosing; conditions: 5 min; dosed: Gemfibrozil; 50 mg/kg; oral; Male; Sprague-Dawley
Rat [14] = test: concentration in plasma after dosing; conditions: 4 h; dosed: Gemfibrozil; 4.29 mg/kg; oral; Male; Sprague-Dawley
Rat [15] = test: concentration in plasma after dosing; conditions: 0.25 h; dosed: Gemfibrozil; 4.29 mg/kg; oral; Male; Sprague-Dawley
Rat [16] = test: concentration in plasma after dosing; conditions: 0.25 h; dosed: Gemfibrozil; 100 mg/kg; oral; Male; Sprague-Dawley
Rat [17] = test: concentration in plasma after dosing; conditions: dosed: Perfluorohexanoic Acid, 40 mg/kg, iv, Male, F344
Rat [18] = test: concentration in brain after dosing; conditions: 0.5 h; dosed: Perfluorohexanoic Acid; 80 mg/kg; oral; Male; Harlan Sprague Dawley
Rat [19] = test: concentration in plasma after dosing; conditions: dosed: Perfluorohexanoic Acid, 40 mg/kg, iv, Male, F344; remark: listed apart in the source
Rat [20] = test: concentration in plasma after dosing; conditions: dosed: Perfluorohexanoic Acid, 80 mg/kg, oral, Male, Harlan Sprague Dawley
Rat [21] = test: concentration in plasma after dosing; conditions: 0.75 h; dosed: Perfluorohexanoic Acid; 40 mg/kg; iv; Male; F344
rat [22] = test: concentration in blood after dosing; negative times count back from the end of exposure; conditions: dosed: trichloroethylene, 50 ppm, inhalation, duration: 4 hr, male, Sprague Dawley
Rat [23] = test: concentration in liver after dosing; conditions: 3 h; dosed: Fluorotelomer alcohol 8+2; 24 mg/kg; oral; Male; Harlan Sprague Dawley
Rat [24] = test: concentration in liver after dosing; conditions: 12 h; dosed: Fluorotelomer alcohol 8+2; 24 mg/kg; oral; Male; Harlan Sprague Dawley
Rat [25] = test: concentration in kidney after dosing; conditions: 3 h; dosed: Fluorotelomer alcohol 8+2; 24 mg/kg; oral; Male; Harlan Sprague Dawley
Rat [26] = test: concentration in plasma after dosing; conditions: 192 h; dosed: 678-39-7; 12 mg/kg; iv; Male; F344
Rat [27] = test: concentration in brain after dosing; conditions: 1 h; dosed: Fluorotelomer alcohol 8+2; 80 mg/kg; oral; Female; Harlan Sprague Dawley
Rat [28] = test: concentration in kidney after dosing; conditions: 6 h; dosed: Fluorotelomer alcohol 8+2; 80 mg/kg; oral; Female; Harlan Sprague Dawley
Rat [29] = test: concentration in plasma after dosing; conditions: dosed: Fluorotelomer alcohol 8+2, 12 mg/kg, oral, Male, Harlan Sprague Dawley
Rat [30] = test: concentration in liver after dosing; conditions: 1 h; dosed: Fluorotelomer alcohol 8+2; 24 mg/kg; oral; Male; Harlan Sprague Dawley
Rat [31] = test: concentration in brain after dosing; conditions: 0.5 h; dosed: 2-Methyltetrahydrofuran; 40 mg/kg; iv; Male; Harlan Sprague Dawley
Rat [32] = test: concentration in plasma after dosing; conditions: 6 h; dosed: 2-Methyltetrahydrofuran; 40 mg/kg; iv; Male; Harlan Sprague Dawley
Rat [33] = test: concentration in plasma after dosing; conditions: 2 min; dosed: 2-Methyltetrahydrofuran; 40 mg/kg; iv; Female; Harlan Sprague Dawley
Rat [34] = test: concentration in plasma after dosing; conditions: 1.5 h; dosed: 2-Methyltetrahydrofuran; 40 mg/kg; iv; Male; Harlan Sprague Dawley
Rat [35] = test: concentration in brain after dosing; conditions: 2 h; dosed: 2-Methyltetrahydrofuran; 40 mg/kg; iv; Male; Harlan Sprague Dawley
Rat [36] = test: concentration in brain after dosing; conditions: 2 h; dosed: 2-Methyltetrahydrofuran; 40 mg/kg; iv; Female; Harlan Sprague Dawley
Rat [37] = test: concentration in brain after dosing; conditions: 0.75 h; dosed: 2-Methyltetrahydrofuran; 40 mg/kg; iv; Male; Harlan Sprague Dawley
Rat [38] = test: concentration in plasma after dosing; conditions: 2 h; dosed: 2-Methyltetrahydrofuran; 40 mg/kg; iv; Male; Harlan Sprague Dawley

O=S(=O)([O-])C(F)(F)C(F)(F)C(F)(F)C(F)(F)C(F)(F)C(F)(F)C(F)(F)C(F)(F)F [Perfluorooctane Sulfonate]
Conditions | concentration in brain [ng/g] | concentration in kidney [ng/g] | concentration in liver [ng/g]
Rat [1] | – | 1390 | –
Rat [2] | – | 63800 | –
Rat [3] | – | – | 37900
Rat [4] | – | – | 71400
Rat [6] | – | – | 23900
Rat [7] | – | – | 29800
Rat [8] | – | – | 15700
Rat [9] | – | 82400 | –
Rat [10] | – | – | 164000
Rat [11] | – | 4360 | –
Rat [12] | 660 | – | –

Rat [5]
Conditions | concentration in plasma [ng/mL]
1 h | 4240
192 h | 4100
2376 h | 105

Cc1ccc(C)c(OCCCC(C)(C)C(=O)O)c1 [Gemfibrozil]
Conditions | concentration in plasma [ng/mL]
Rat [13] | 2350
Rat [14] | 238
Rat [15] | 509
Rat [16] | 72300

O=C(O)C(F)(F)C(F)(F)C(F)(F)C(F)(F)C(F)(F)F [Perfluorohexanoic Acid]
Conditions | concentration in plasma [ng/mL]
Rat [17], 3 h | 3900
Rat [17], 5 min | 23100
Rat [19], 0.5 h | 23200
Rat [19], 12 h | 120
Rat [20], 0.25 h | 156000
Rat [20], 24 h | 416

Conditions | concentration in brain [ng/g] | concentration in plasma [ng/mL]
Rat [18] | 2500 | –
Rat [21] | – | 18600

ClC=C(Cl)Cl [trichloroethylene]
rat [22]
Conditions | concentration in blood [ng/mL]
0.2317 h | 2420
0.4119 h | 1510
0.9932 h | 820
1.803 h | 370
3.975 h | 289

rat [22], during exposure
Conditions | concentration in blood [ng/mL]
-6 s | 2790
-3.423 h | 1890
-3.024 h | 1360
-1.999 h | 2680
-1.012 h | 2670

O=C(O)CCC(F)(F)C(F)(F)C(F)(F)C(F)(F)C(F)(F)C(F)(F)C(F)(F)F [Fluorotelomer acid 7+3]
Conditions | concentration in brain [ng/g] | concentration in kidney [ng/g] | concentration in liver [ng/g] | concentration in plasma [ng/mL]
Rat [23] | – | – | 2780 | –
Rat [24] | – | – | 1400 | –
Rat [25] | – | 1450 | – | –
Rat [26] | – | – | – | 8.6
Rat [27] | 252 | – | – | –
Rat [28] | – | 3960 | – | –
Rat [30] | – | – | 588 | –

Rat [29]
Conditions | concentration in plasma [ng/mL]
0.5 h | 133
9 h | 218

CC1CCCO1 (stereo not drawn) [2-Methyltetrahydrofuran]
Conditions | concentration in brain [ng/mL] | concentration in plasma [ng/mL]
Rat [31] | 16200 | –
Rat [32] | – | 16.9
Rat [33] | – | 52500
Rat [34] | – | 11000
Rat [35] | 8260 | –
Rat [36] | 9940 | –
Rat [37] | 11300 | –
Rat [38] | – | 12100
